According to patent US20220017566A1, “TERPINOID DERIVATIVES AND USES THEREOF” (SICHUAN HAISCO PHARMACEUTICAL CO., LTD., priority 2018, published 2022):
Where two headings read alike, the source gives them in different places.

Experiments:
NQO1 = NQO1 activity assay in Raw264.7 cell lysates; format: cell-based; conditions: Mus musculus; Raw264.7 cells, 48 hours treatment
Description: Raw264.7 cells were seeded in DMEM+10% FBS in 96-well plates at a density of 10,000 cells per well. 6 hours after plating, cells were treated with DMSO or test compounds (top dose 100 nM, 1:4 serial dilution, 8-point) for 48 hours. NQO1 activity was then detected in cell lysates using NQO1 activity assay kit (Abeam, Cat#ab184867). NQO1 activity was then plotted against compound concentration, and EC50 values were calculated using four-parameter algorithm in Graphpad Prism.

[1] = system: IFNγ-induced NO production in Raw 264.7 cells; assay: Nitric oxide assay: suppression of IFNγ-induced NO production (Griess nitrite, adjusted to live cell numbers); format: cell-based; conditions: Mus musculus, RAW264.7, 2 h pretreatment, IFNγ 10 ng/ml for 24 hours
Description: Raw 264.7 cells were seeded in 96-well plates at a density of 30, 000 cells per well in DMEM+10% FBS and incubated overnight. The next day, cell media was replaced by DMEM+2% FBS. Cells were pretreated with DMSO or test compounds (top dose 100 nM, 1:4 serial dilution, 10-point) for 2 hours and then treated with recombinant mouse IFNγ (R&D, Cat# 485-MI-100) at a final concentration of 10 ng/ml for 24 hours. Nitrite levels were measured in culture media as a surrogate for nitric oxide using the Griess Reagent System (Promega, Cat# G2930). Cell viability was determined using CellTiter Glo reagents (Promega, Cat#G7572). The nitrite levels were adjusted to live cell numbers and inhibition percentage was calculated. The inhibition percentage was then plotted against compound concentration, and IC50 values were calculated using four-parameter algorithm in Graphpad Prism.

[2] = Metabolic stability in dog liver microsomes; format: in vitro ADME; conditions: Beagle
Description: (§1) The metabolic stability of test compounds was examined in CD-1 mouse, Sprague Dawley rat, Beagle dog, cynomolgus monkey, and human liver microsomes. Test compound (final concentration 1 μM) was mixed with diluted liver microsomes from each of the 5 species and a small aliquot was taken at 0, 5, 10, 20, 30, and 60 minutes for LC/MS/MS analysis. Intrinsic clearance and half-life were calculated.

[3] = Metabolic stability in mouse liver microsomes; format: in vitro ADME, CD-1 mouse; conditions: CD-1
Description: as §1

[4] = Metabolic stability in rat liver microsomes; format: in vitro ADME; conditions: Sprague Dawley
Description: as §1

[5] = Metabolic stability in monkey liver microsomes; format: in vitro ADME, cynomolgus monkey
Description: as §1

CYP2D6 = target: T1, CYP2D6 (Homo sapiens, UniProt P10635); assay: CYP450 enzyme inhibition in liver microsomes (cocktail probe incubation); format: in vitro ADME; conditions: species not given, 0.05-50 μM tested
T1 construct: studied in liver microsomes of CD-1 mouse, Sprague Dawley rat, Beagle dog, cynomolgus monkey, and human; from tissue; host or cells: liver microsomes
Description: (§2) The inhibition potential of test compounds towards major drug metabolizing CYP450 enzymes was studied in liver microsomes of CD-1 mouse, Sprague Dawley rat, Beagle dog, cynomolgus monkey, and human. The inhibition of CYP1A2, CYP2C9, CYP2C19, CYP2D6, and CYP3A4 was assessed using CYP450 specific probe reactions in a cocktail incubation. Seven concentrations of test compounds (0.05, 0.15, 0.5, 1.5, 5, 15, and 50 μM) were evaluated. In addition, known inhibitors for each probe reaction were included as positive controls and incubated at a single concentration above their respective IC50.

CYP2C19 = target: T2, CYP2C19 (Homo sapiens, UniProt P33261); assay: as above; format: in vitro ADME; conditions: species not given, 0.05-50 μM tested
T2 construct: studied in liver microsomes of CD-1 mouse, Sprague Dawley rat, Beagle dog, cynomolgus monkey, and human; from tissue; host or cells: liver microsomes
Description: as §2

CYP1A2 = target: T3, CYP1A2 (Homo sapiens, UniProt P05177); assay: as above; format: in vitro ADME; conditions: species not given, 0.05-50 μM tested
T3 construct: studied in liver microsomes of CD-1 mouse, Sprague Dawley rat, Beagle dog, cynomolgus monkey, and human; from tissue; host or cells: liver microsomes
T3 sequence (P05177 1-516): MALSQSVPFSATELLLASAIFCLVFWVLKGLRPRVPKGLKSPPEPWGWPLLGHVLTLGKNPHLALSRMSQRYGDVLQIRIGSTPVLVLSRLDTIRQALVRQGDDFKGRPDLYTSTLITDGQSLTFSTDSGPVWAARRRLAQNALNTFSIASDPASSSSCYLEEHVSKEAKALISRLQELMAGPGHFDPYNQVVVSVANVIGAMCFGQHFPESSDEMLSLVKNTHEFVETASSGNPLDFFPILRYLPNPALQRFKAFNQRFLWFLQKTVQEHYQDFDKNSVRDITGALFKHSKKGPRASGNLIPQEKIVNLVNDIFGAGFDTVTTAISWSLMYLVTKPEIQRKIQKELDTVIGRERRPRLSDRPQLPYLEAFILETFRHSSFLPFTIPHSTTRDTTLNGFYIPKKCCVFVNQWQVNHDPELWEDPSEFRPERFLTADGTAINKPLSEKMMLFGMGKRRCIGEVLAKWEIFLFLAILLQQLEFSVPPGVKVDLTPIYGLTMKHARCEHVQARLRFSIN
Description: as §2

CYP2C9 = target: T4, CYP2C9 (Homo sapiens, UniProt P11712); assay: as above; format: in vitro ADME; conditions: species not given, 0.05-50 μM tested
T4 construct: studied in liver microsomes of CD-1 mouse, Sprague Dawley rat, Beagle dog, cynomolgus monkey, and human; from tissue; host or cells: liver microsomes
Description: as §2

CYP3A4 = target: T5, CYP3A4 (Homo sapiens, UniProt P08684); assay: as above; format: in vitro ADME; conditions: species not given, 0.05-50 μM tested
T5 construct: studied in liver microsomes of CD-1 mouse, Sprague Dawley rat, Beagle dog, cynomolgus monkey, and human; from tissue; host or cells: liver microsomes
Description: as §2

[6] = Metabolic stability in human liver microsomes; format: in vitro ADME
Description: as §1

[7] = Pharmacokinetic studies in Sprague Dawley rats (oral gavage and IV); format: in vivo; conditions: rat, male SD rats, plasma; for AUC(0-t): read-out: AUC0-24 h; for bioavailability: oral 5 mg/kg vs IV 1 mg/kg, read-out: Bioavailibility F %
Description: The pharmacokinetics of test compounds was evaluated in male SD rats when administered via oral gavage and IV injection. For oral dosing, compound was formulated in 0.5% methylcellulose and administered at doses of 5 mg/kg (3 rats per dose level) and volume of 10 mL/kg. For IV dosing, compound was formulated in 5% DMSO/5% Solutol/90% saline and administered to 3 rats at a dose of 1 mg/kg and a volume of 5 mL/kg. The rats were fasted overnight before administration. Plasma samples were collected predose and at 0.5, 1, 3, 6, 9, 12, and 24 hours postdose. The samples were analyzed by LC/MS/MS and the concentration of test compound at each timepoint was determined by linear regression. Pharmacokinetic parameters were calculated from the plasma concentrations using Pheonix WinNonlin.

T2 sequence (P33261 whole entry): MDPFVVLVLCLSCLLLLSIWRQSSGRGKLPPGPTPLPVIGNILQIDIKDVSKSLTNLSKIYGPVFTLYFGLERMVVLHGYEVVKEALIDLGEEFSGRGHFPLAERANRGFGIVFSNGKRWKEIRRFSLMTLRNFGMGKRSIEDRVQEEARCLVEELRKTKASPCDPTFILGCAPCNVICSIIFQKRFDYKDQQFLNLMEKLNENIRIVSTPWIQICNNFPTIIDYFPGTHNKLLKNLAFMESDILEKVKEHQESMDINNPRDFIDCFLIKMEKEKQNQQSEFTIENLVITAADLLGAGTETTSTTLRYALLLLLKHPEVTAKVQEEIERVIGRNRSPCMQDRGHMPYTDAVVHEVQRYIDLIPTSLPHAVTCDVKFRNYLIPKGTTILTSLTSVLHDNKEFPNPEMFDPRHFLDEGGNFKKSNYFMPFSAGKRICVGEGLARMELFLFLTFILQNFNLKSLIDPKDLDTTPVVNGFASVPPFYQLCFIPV
T1 sequence (P10635 whole entry): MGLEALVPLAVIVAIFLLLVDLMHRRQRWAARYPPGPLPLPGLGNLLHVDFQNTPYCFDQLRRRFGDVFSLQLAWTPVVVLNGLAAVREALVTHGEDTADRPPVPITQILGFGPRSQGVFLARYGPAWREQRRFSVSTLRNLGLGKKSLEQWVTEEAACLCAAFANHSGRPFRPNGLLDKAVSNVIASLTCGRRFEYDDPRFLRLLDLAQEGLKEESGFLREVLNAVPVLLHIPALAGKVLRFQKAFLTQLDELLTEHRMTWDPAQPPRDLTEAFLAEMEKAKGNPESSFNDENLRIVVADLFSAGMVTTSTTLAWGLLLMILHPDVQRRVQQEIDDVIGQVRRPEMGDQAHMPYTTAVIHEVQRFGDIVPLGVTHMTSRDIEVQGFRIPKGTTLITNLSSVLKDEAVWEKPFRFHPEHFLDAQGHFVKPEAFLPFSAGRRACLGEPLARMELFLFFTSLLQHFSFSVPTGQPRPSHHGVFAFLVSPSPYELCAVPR
T4 sequence (P11712 whole entry): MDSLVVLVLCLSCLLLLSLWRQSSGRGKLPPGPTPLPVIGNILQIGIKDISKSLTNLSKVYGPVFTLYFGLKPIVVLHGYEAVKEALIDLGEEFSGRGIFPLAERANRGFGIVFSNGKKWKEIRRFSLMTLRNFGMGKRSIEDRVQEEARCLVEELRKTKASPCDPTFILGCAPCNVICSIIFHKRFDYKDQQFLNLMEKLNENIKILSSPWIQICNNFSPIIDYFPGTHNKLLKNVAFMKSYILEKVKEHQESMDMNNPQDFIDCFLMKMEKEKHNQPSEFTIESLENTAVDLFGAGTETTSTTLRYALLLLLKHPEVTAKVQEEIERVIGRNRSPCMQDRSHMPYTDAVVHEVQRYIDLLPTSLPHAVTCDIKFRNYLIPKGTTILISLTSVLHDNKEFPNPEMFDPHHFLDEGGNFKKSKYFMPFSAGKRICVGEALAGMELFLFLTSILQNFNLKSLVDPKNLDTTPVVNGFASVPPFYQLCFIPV
T5 sequence (P08684 whole entry): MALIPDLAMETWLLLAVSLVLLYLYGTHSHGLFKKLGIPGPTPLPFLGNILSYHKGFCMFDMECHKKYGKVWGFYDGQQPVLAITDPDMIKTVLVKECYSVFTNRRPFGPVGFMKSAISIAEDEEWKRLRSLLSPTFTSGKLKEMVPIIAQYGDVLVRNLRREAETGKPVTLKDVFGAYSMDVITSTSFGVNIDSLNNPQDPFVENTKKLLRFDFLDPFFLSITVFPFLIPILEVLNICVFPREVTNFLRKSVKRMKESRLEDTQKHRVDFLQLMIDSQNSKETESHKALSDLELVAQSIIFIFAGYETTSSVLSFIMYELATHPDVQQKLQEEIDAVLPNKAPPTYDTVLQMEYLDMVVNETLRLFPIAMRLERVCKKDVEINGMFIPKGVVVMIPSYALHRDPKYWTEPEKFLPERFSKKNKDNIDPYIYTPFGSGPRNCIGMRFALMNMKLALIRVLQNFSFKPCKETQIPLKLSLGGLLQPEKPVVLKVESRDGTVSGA

SMILES | EC50 (NQO1) [µM] | IC50 [1] [µM] | CLint scaled at 1 μM [2] [mL/min/kg] | half-life at 1 μM [2] [min] | CLint scaled at 1 μM [3] [mL/min/kg] | half-life at 1 μM [3] [min] | CLint scaled at 1 μM [4] [mL/min/kg] | half-life at 1 μM [4] [min] | CLint scaled at 1 μM [5] [mL/min/kg] | half-life at 1 μM [5] [min] | IC50 (CYP2D6) [µM] | IC50 (CYP2C19) [µM] | IC50 (CYP1A2) [µM] | IC50 (CYP2C9) [µM] | IC50 (CYP3A4) [µM] | CLint scaled at 1 μM [6] [mL/min/kg] | half-life at 1 μM [6] [min] | C0 ([7]; IV (1 mg/kg)) [ng/mL] | clearance ([7]; IV (1 mg/kg)) [mL/min/kg] | half-life ([7]; IV (1 mg/kg)) [min] | further results
COC(=O)[C@]12CCC(C)(C)C[C@H]1[C@H]1C(=O)C=C3[C@@]4(C)C=C(C#N)C(=O)C(C)(C)[C@@H]4CC[C@@]3(C)[C@]1(C)CC2 [Control, reference compound] | < 0.01 | < 0.01 | 78 | 25.6 | 180 | 30.6 | 832 | 3 | 949 | 2 | > 50 | 5.2 | > 50 | 1.7 | 2.6 | 95.4 | 13.1 | 365 | 56.8 | 378 | AUC(0-t) ([7]; IV (1 mg/kg)): 291 ng·h/mL; Cmax ([7]; Oral (5 mg/kg)): 7 ng/mL; half-life ([7]; Oral (5 mg/kg)): 204 min; AUC(0-t) ([7]; Oral (5 mg/kg)): 26 ng·h/mL; bioavailability [7]: 1.8%
Cc1nnc([C@@]2(C)CC[C@]3(C)CC[C@]4(C)[C@H](C(=O)C=C5[C@@]6(C)C=C(C#N)C(=O)C(C)(C)[C@@H]6CC[C@]54C)[C@@H]3C2)o1 [Example 1, (4aR,6aS,6bR,8aS,11S,12aS,12bR,14bS)-4,4,6a,6b,8a,11,14b-heptamethyl-11-(5-methyl-1,3,4-oxadiazol-2-yl)-3,13-dioxo-3,4,4a,5,6,6a,6b,7,8,8a,9,10,11,12,12a,12b,13,14b-octadecahydropicene-2-carbonitrile] | < 0.01 | < 0.01 | 37 | 54 | 423 | 13 | 42 | 59.4 | 269 | 7 | 15 | 11.8 | > 50 | 2.7 | 1 | 168 | 7.4 | 349 | 63.8 | 102 | AUC(0-t) ([7]; IV (1 mg/kg)): 258 ng·h/mL; Cmax ([7]; Oral (5 mg/kg)): 170 ng/mL; half-life ([7]; Oral (5 mg/kg)): 132 min; AUC(0-t) ([7]; Oral (5 mg/kg)): 1100 ng·h/mL; bioavailability [7]: 83.8%
CC1(C)C(=O)C(C#N)=C[C@]2(C)C3=CC(=O)[C@@H]4[C@@H]5C[C@@](C)(C#N)CC[C@]5(C)CC[C@@]4(C)[C@]3(C)CC[C@@H]12 [Example 2, (2S,4aS,6aR,6bS,8aR,12aS,14aR,14bS)-2,4a,6a,6b,9,9,12a-heptamethyl-10,14-dioxo-1,2,3,4,4a,5,6,6a,6b,7,8,8a,9,10,12a,14,14a,14b-octadecahydropicene-2,11-dicarbonitrile] | < 0.01 |  | 313 | 6.4 | 1750 | 3.1 | 157 | 15.9 | 782 | 2.4 | 20.2 | 25.4 | > 50 | 2.2 | 1.7 | 397 | 3.1 | 500 | 53 | 72 | AUC(0-t) ([7]; IV (1 mg/kg)): 314 ng·h/mL; Cmax ([7]; Oral (5 mg/kg)): 177 ng/mL; half-life ([7]; Oral (5 mg/kg)): 78 min; AUC(0-t) ([7]; Oral (5 mg/kg)): 521 ng·h/mL; bioavailability [7]: 33.2%
CNC(=NC#N)NC[C@]12CCC(C)(C)C[C@H]1[C@H]1C(=O)C=C3[C@@]4(C)C=C(C#N)C(=O)C(C)(C)[C@@H]4CC[C@@]3(C)[C@]1(C)CC2 [Example 3, 2-cyano-1-(((4aS,6aR,6bS,8aR,12aS,14aR,14bS)-11-cyano-2,2,6a,6b,9,9,12a-heptamethyl-10,14-dioxo-1,3,4,5,6,6a,6b,7,8,8a,9,10,12a,14,14a,14b-hexadecahydropicen-4a(2H)-yl)methyl)-3-methylguanidine] | 0.01 to 0.1 | < 0.01 | 81.6 | 24.5 | 150 | 36.5 | 50.3 | 49.6 | 156 | 12 | 4.7 | 17.8 | > 50 | 3.4 | 6.7 | 50.7 | 24.6 |  |  |  | 
C/S(CC(=O)N[C@]12CCC(C)(C)C[C@H]1[C@H]1C(=O)C=C3[C@@]4(C)C=C(C#N)C(=O)C(C)(C)[C@@H]4CC[C@@]3(C)[C@]1(C)CC2)=N\C#N (stereo partly drawn) [Example 5, N-((4aS,6aR,6bS,8aR,12aS,14aR,14bS)-11-cyano-2,2,6a,6b,9,9,12a-heptamethyl-10,14-dioxo-1,3,4,5,6,6a,6b,7,8,8a,9,10,12a,14,14a,14b-hexadecahydropicen-4a(2H)-yl)-2-((E)-N-cyano-S-methylsulfinimidoyl)acetamide] | 0.01 to 0.1 | < 0.01 |  |  |  |  |  |  |  |  |  |  |  |  |  |  |  |  |  |  | 
CC1(C)C(=O)C(C#N)=C[C@]2(C)C3=CC(=O)[C@@H]4[C@@H]5C[C@@](C)(N6CCC(O)C6)CC[C@]5(C)CC[C@@]4(C)[C@]3(C)CC[C@@H]12 (stereo partly drawn) [Example 20, (4aR,6aS,6bR,8aS,11S,12aS,12bR,14bS)-11-(3-hydroxypyrrolidin-1-yl)-4,4,6a,6b,8a,11,14b-heptamethyl-3,13-dioxo-3,4,4a,5,6,6a,6b,7,8,8a,9,10,11,12,12a,12b,13,14b-octadecahydropicene-2-carbonitrile] | < 0.01 | < 0.01 |  |  |  |  |  |  |  |  | > 50 | 18.9 | > 50 | 8.6 | 3.2 |  |  |  |  |  | 
